Measurements reported in patent US7491793B2 (priority 2003, dated 2009).

Test system: Lassa virus (Josiah strain)
Type: cell-based

Row | Sequence | inhibition of plaque formation by LasV
1 | GWTFWTLSDSEGKDTPGGY [SEQ ID NO:31] | inhibited infection by LasV, but to a lesser extent
2 | NYSKYWYLNHTTTGR [SEQ ID NO:30] | can inhibit plaque formation by LasV
